# Test results: US20020025940A1, “Methods and compositions for sensitive and rapid, functional identification of genomic polynucleotides and use for cellular assays in drug discovery” (Aurora Biosciences Corporation, priority 1997, published 2002)
# Assays:
# [1] = system: BLEC Jurkat clones; test: Specificity of activated BLEC Jurkat clones, relative beta-lactamase activity; type: cell-based, human; conditions: PMA 8 nM, Thaps 1 microM, CsA 100 nM, PHA 10 microgram/ml
# Text: (§1) Isolated clones from PHA-induced (Example 6) and PHA-repressed (Example 7) procedures described above were characterized to determine the specificity of their modulation and time required for induction or repression. Clones were stimulated with multiple activators or inhibitors over a one to twenty-four hour time interval.
# (§2) In this study, PMA, which is a PKC activator, Thapsigargin which increases intracellular calcium, PHA which activates the T-cell receptor pathway, and cyclosporin A which is a clinically approved immunosuppressant that inhibits the Ca^2+ dependent phosphates calcineurin were investigated for their ability to modulate beta-lactamase expression in PHA induced and repressed BLEC clones.
# [2] = system: induced BLEC Jurkat clones; test: Characterization of induced BLEC Jurkat clones, change in 460/530 ratio; type: cell-based, human; conditions: PHA 10 microgram/ml, Thaps 1 microM, PMA 8 nM, Anti-CD3 2 microgram/ml
# Text: These clones represent cells in which the trapping construct had integrated into a gene up regulated by PHA (T-cell) activation. Thus, these cells report the transcriptional activation of a gene upon cellular activation. Individual clones were identified and isolated by FACS using CCF2/AM to detect beta-lactamase activity. This clone isolation method, the induced sorting paradigm, used three sequential and independent stimulation and sorting protocols. […] These control cells were all green.
# These isolated clones were expanded and tested for PHA inducibility by microscopic inspection with and without PHA stimulation in the presence of CCF2/AM. A total of fifty-five PHA inducible clones were identified using this procedure. The PHA inducibility for these clones ranged from a 1.5 to 40 fold change in the 460/530 ratio as compared to unstimulated control cells. Genomic Southern analysis using a DNA probe encoding beta-lactamase established that these clones represented 34 independent stable vector integration events. A list of clones obtained by the methods of the present invention and their characteristics is provided below in Table 6 and Table 7.
# In addition to PHA inducible clones, Phobol 12-myristate 13-acetate (PMA) (Calbiochem), Thapsigargin (Thaps) (Calbiochem), and PMA+Thaps inducible clones were isolated using the general procedure set forth above using the indicated inducer rather than PHA. PMA is a specific activator of PKC (protein kinase C) and Thaps is a specific activator of intracellular calcium ion release (Thaps). These clones were isolated using three rounds of FACS using the general procedures described for the PHA inducible clones in Example 5. In such instances, other stimulants were substituted for PHA. PMA was provided at 8 nM, Thaps was provided at 1 microM. When these two stimulants were combined, their concentration was not changed. […] By using varied selection conditions, it is possible to isolate functionally distinct clones downstream of the desired signaling target.
# Table 7 and Table 8 provide data similar to that provided in Table 5 for all of the clones obtained by the methods of Examples 5 to 7.
# [3] = system: clone C2 (3×NFAT response element linked to beta-lactamase, M1 muscurinic receptor); test: Relative beta-lactamase activity of control clone C2; type: cell-based, human; conditions: PMA 8 nM, Thaps 1 microM, CsA 100 nM, PHA 10 microgram/ml
# Text: as §1, §2
# [4] = system: J389PT14/pcDNA3; test: Beta-lactamase expression in control cell line J389PTI4/pcDNA3; type: cell-based, human; conditions: 30 μM Carbachol, 10 nM PHA, 6 hours, unstimulated = 1
# Procedure: (§3) For example, a calcium-sensitive clone was transfected with a Gq-type GPCR by electroporation. Cells from clone J389PT14 were transfected by electroporation with a plasmid (pcDNA3 (Invitrogen) or pcDNA3-M1 (pcDNA3 that can operably express M1 receptor) to make cell lines J389PTI4/pcDNA3 and J389PTI4/pcDNA3-Ml). […] Thus, the J389PTI4/pcDNA3 cell is a control cell. […] These cells were contacted with CCF-2 dye for another 90 minutes. The 460/530 ratio changes were measured in a Cytoflour (Series 4000 Model) (Perceptive Biosystems) fluorescence plate reader and correspond to reporter gene expression.
# [5] = target: T1, M1 receptor (Homo sapiens, UniProt P11229); type: cell-based; conditions: cell line J389PT14/pcDNA3-M1; 30 μM Carbachol, 10 nM PHA; 6 hours; unstimulated = 1
# T1 construct: expressed in transfected cells; host or cells: Jurkat-derived BLEC clone J389PT14, transiently transfected by electroporation with pcDNA3-M1
# Procedure: as §3
# T1 sequence (P11229 whole entry): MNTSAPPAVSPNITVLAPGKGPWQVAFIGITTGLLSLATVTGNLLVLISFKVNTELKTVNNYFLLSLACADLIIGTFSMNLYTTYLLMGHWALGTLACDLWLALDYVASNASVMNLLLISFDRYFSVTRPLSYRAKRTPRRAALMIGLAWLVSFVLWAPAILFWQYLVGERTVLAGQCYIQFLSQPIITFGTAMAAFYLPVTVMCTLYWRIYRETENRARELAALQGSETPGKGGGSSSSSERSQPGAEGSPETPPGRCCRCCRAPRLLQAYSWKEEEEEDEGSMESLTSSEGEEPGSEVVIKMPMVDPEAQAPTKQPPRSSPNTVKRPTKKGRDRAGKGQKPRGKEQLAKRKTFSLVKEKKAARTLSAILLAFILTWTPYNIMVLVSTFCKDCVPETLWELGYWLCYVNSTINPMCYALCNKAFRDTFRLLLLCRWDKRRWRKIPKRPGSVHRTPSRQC
substance,measurement,setting,value
phytohemaglutinin [PHA],Relative Beta-Lactamase Activity of the Clone by the Indicated Stimulus After 24 hours (% of maximum activated stimuli),[1]; clone J32-6D4,80%
same,Relative Beta-Lactamase Activity of the Clone by the Indicated Stimulus After 24 hours (% of maximum activated stimuli),[1]; clone J83 97-PPTR2 (repressed paradigm),67%
same,Relative Beta-Lactamase Activity of the Clone by the Indicated Stimulus After 24 hours (% of maximum activated stimuli),[1]; clone J83-PI9,60%
same,Relative Beta-Lactamase Activity of the Clone by the Indicated Stimulus After 24 hours (% of maximum activated stimuli),[1]; clone J83-PTI8,60%
same,Relative Beta-Lactamase Activity of the Clone by the Indicated Stimulus After 24 hours (% of maximum activated stimuli),[1]; clone J389-PTI4,85%
same,Change in 460/530 ratio in the indicated clone by the following activator,[2]; clone J83PI1,3-4
same,Change in 460/530 ratio in the indicated clone by the following activator,[2]; clone J83PI2,8
same,Change in 460/530 ratio in the indicated clone by the following activator,[2]; clone J83PI3,5-6
same,Change in 460/530 ratio in the indicated clone by the following activator,[2]; clone J83PI4,34
same,Change in 460/530 ratio in the indicated clone by the following activator,[2]; clone J83PI6,6-7
same,Change in 460/530 ratio in the indicated clone by the following activator,[2]; clone J83PI7,2
same,Change in 460/530 ratio in the indicated clone by the following activator,[2]; clone J83PI8,4-5
same,Change in 460/530 ratio in the indicated clone by the following activator,[2]; clone J83PI9,6
same,Change in 460/530 ratio in the indicated clone by the following activator,[2]; clone J83PI13,2-3
same,Change in 460/530 ratio in the indicated clone by the following activator,[2]; clone J83PI14,2
same,Change in 460/530 ratio in the indicated clone by the following activator,[2]; clone J83PI15,3-4
same,Change in 460/530 ratio in the indicated clone by the following activator,[2]; clone J83PI16,3-4
same,Change in 460/530 ratio in the indicated clone by the following activator,[2]; clone J83PI18,5-6
same,Change in 460/530 ratio in the indicated clone by the following activator,[2]; clone J83PI19,5-6
same,Change in 460/530 ratio in the indicated clone by the following activator,[2]; clone J97PI1,3-4
same,Change in 460/530 ratio in the indicated clone by the following activator,[2]; clone J97PI2,2-3
same,Change in 460/530 ratio in the indicated clone by the following activator,[2]; clone J97PI3,1-2
same,Change in 460/530 ratio in the indicated clone by the following activator,[2]; clone J97PI4,1-2
same,Change in 460/530 ratio in the indicated clone by the following activator,[2]; clone J97PI6,3-4
same,Change in 460/530 ratio in the indicated clone by the following activator,[2]; clone J97PI7,3-4
same,Change in 460/530 ratio in the indicated clone by the following activator,[2]; clone J97PI8,2.5-3
same,Change in 460/530 ratio in the indicated clone by the following activator,[2]; clone J97PI9,2-3
same,Change in 460/530 ratio in the indicated clone by the following activator,[2]; clone J97PI10,3-4
same,Change in 460/530 ratio in the indicated clone by the following activator,[2]; clone J97PI11,3-4
same,Change in 460/530 ratio in the indicated clone by the following activator,[2]; clone J97PI12,3-4
same,Change in 460/530 ratio in the indicated clone by the following activator,[2]; clone J97PI13,2-3
same,Change in 460/530 ratio in the indicated clone by the following activator,[2]; clone J97PI14,4-5
same,Change in 460/530 ratio in the indicated clone by the following activator,[2]; clone J97PI15,1-2
same,Change in 460/530 ratio in the indicated clone by the following activator,[2]; clone J97PI17,4-5
same,Change in 460/530 ratio in the indicated clone by the following activator,[2]; clone J97PI18,1-2
same,Change in 460/530 ratio in the indicated clone by the following activator,[2]; clone J97PI19,2-3
same,Change in 460/530 ratio in the indicated clone by the following activator,[2]; clone J97PI20,1-2
same,Change in 460/530 ratio in the indicated clone by the following activator,[2]; clone J97PI21,2-3
same,Change in 460/530 ratio in the indicated clone by the following activator,[2]; clone J97PI22,5-6
same,Change in 460/530 ratio in the indicated clone by the following activator,[2]; clone J97PI23,4-5
same,Change in 460/530 ratio in the indicated clone by the following activator,[2]; clone J97PI24,3-4
same,Change in 460/530 ratio in the indicated clone by the following activator,[2]; clone J97PI116,2-3
same,Change in 460/530 ratio in the indicated clone by the following activator,[2]; clone J325B5,7
same,Change in 460/530 ratio in the indicated clone by the following activator,[2]; clone J325B11,9
same,Change in 460/530 ratio in the indicated clone by the following activator,[2]; clone J325E1,8
same,Change in 460/530 ratio in the indicated clone by the following activator,[2]; clone J325E3,7
same,Change in 460/530 ratio in the indicated clone by the following activator,[2]; clone J325E6,11
same,Change in 460/530 ratio in the indicated clone by the following activator,[2]; clone J325G4,3-4
same,Change in 460/530 ratio in the indicated clone by the following activator,[2]; clone J326C9,4-5
same,Change in 460/530 ratio in the indicated clone by the following activator,[2]; clone J326D4,10
same,Change in 460/530 ratio in the indicated clone by the following activator,[2]; clone J326D7,10
same,Change in 460/530 ratio in the indicated clone by the following activator,[2]; clone J326F7,10
same,Change in 460/530 ratio in the indicated clone by the following activator,[2]; clone J326H4,10
same,Change in 460/530 ratio in the indicated clone by the following activator,[2]; clone J389PM2,4-5
same,Change in 460/530 ratio in the indicated clone by the following activator,[2]; clone J389PM3,3
same,Change in 460/530 ratio in the indicated clone by the following activator,[2]; clone J389PM5,4-5
same,Change in 460/530 ratio in the indicated clone by the following activator,[2]; clone J389PM7,1-2
same,Change in 460/530 ratio in the indicated clone by the following activator,[2]; clone J389PM8,2-3
same,Change in 460/530 ratio in the indicated clone by the following activator,[2]; clone J389PT4,15
same,Change in 460/530 ratio in the indicated clone by the following activator,[2]; clone J389PTt,5-6
same,Change in 460/530 ratio in the indicated clone by the following activator,[2]; clone J389TI1,1-2
same,Change in 460/530 ratio in the indicated clone by the following activator,[2]; clone J389TI4,0
same,Relative Beta-Lactamase Activity of the Clone by the Indicated Stimulus After 24 hours (% of maximum activated stimuli),[3],30%
same,Relative expression of beta-lactamase in cells exposed to the indicated stimuli,[4],12
same,Relative expression of beta-lactamase in cells exposed to the indicated stimuli,[5],13
